Measured values taken from patent US20260124237A1, “CARTILAGE REGENERATION COMPOSITION” (KOBAYASHI PHARMACEUTICAL CO., LTD., priority 2021, published 2026).

Tests used:
Assay type in all cases: cell-based
[1] = tested on: human bone marrow-derived mesenchymal stem cells; assay: Induction of differentiation to cartilaginous cells in three-dimensional culture (safranin O area); conditions: for Differentiated cartilaginous cell area ratio: control = 1; for activity to induce differentiation to cartilaginous cells (in words): summary of Tables 4 to 11
Experimental: In accordance with Tissue Engineering, (US), 2010, 16 (1), p 81-91. DOI: 10.1089=ten.tec.2008.0693, mesenchymal stem cells were isolated from human normal bone marrow in a dedicated culture medium, and then the cells were grown. The grown cells were recovered, added with an equivalent amount of a cell freezing damage protection liquid CP-1 (KYOKUTO PHARMACEUTICAL INDUSTRIAL CO., LTD), and cryopreserved.
It is known that cartilaginous cells dedifferentiate in two-dimensional culture. As a culture system of cartilaginous cells closer to nature, a technique called three-dimensional culture is adopted. The thawed and grown human bone marrow-derived mesenchymal stem cells were dispensed into 15 mL tubes (made of TPP) by 2.5×10^5 cells, and centrifuged at 1000 rpm for 3 minutes at room temperature. The supernatant was removed and replaced with 0.5 mL of a culture medium to induce differentiation to cartilaginous cells in accordance with Document A. At the same time, as test substances, the garcinia extract, HCA·Ca, and/or the component (B) (components (B1) to (B4)) were added at the concentration shown in Tables 4 to 11. After cultured for 21 days, the cells were fixed in a 4% paraformaldehyde·phosphate buffer for 12 hours, dehydrated in 70% ethanol, and then embedded in paraffin, and then specimens were prepared. In the prepared specimen, the acidic polysaccharides as a cartilage matrix was stained with safranin O, and then the morphology of differentiated cartilaginous cells was observed using an optical microscope (magnification: 10 times). Furthermore, regarding the area showing a red color by safranin O staining, the relative area (differentiated cartilaginous cell area ratio) was calculated using an image analysis software Image J such that the control (Comparative Example 1) had the area of 1.
Except that the component (component (B4)) shown in Table 12 (a) and Table 12 (b) was used as the component (B), and the addition amount of the component (A) and the component (B) (component (B4)) was as shown in Table 12 (a) and Table 12 (b), the same procedure as in Test example 2 was carried out to calculate the differentiated cartilaginous cell area ratio and measure the amount of GAG. The results of the differentiated cartilaginous cell area ratio are shown in Table 12 (a) and Table 12 (b), and the measurement results of the amount of GAG are shown in FIG. 5.

[2] = tested on: human bone marrow-derived mesenchymal stem cells; assay: Cartilage matrix production activity (amount of GAG in pellets); conditions: FIGS. 1 to 4; pellets after 21 days three-dimensional culture, papain digestion
Experimental: LLC is solubilized in 100 mM phosphate buffer pH 7.4, 5 mM L-cysteine hydrochloride monohydrate, and 10 mM EDTA), and then the amount of GAG (glycosaminoglycan) was measured using a GAG quantification kit (manufactured by Blyscan). The larger the amount of GAG, the larger the amount of cartilage matrix produced. […] The results of the differentiated cartilaginous cell area ratio are shown in Table 12 (a) and Table 12 (b), and the measurement results of the amount of GAG are shown in FIG. 5.

[3] = tested on: Human iPS cell-derived mesenchymal stem cells; assay: Differentiation to cartilaginous cells and cartilage matrix production in two-dimensional culture (Alcian blue); conditions: Table 2a: garcinia extract or glucosamine (B4) alone; about 10 days culture; Alcian blue OD 620 nm; control = 1
Text: In accordance with PLOS ONE, (US), 2014, 9 (12), e112291. DOI: 10.1371/journal.pone.0112291 (hereinafter, described as “Document A”), mesenchymal stem cells were induced from human normal iPS cells via neural crest cells, added with an equivalent amount of a cell freezing damage protection liquid CP-1 (manufactured by KYOKUTO PHARMACEUTICAL INDUSTRIAL CO., LTD), and cryopreserved.
Human iPS cell-derived mesenchymal stem cells were thawed and grown, and seeded in a 96 well plate (manufactured by Corning) in 1×10^5 cells/well. After 24 hours, the culture supernatant was removed, and replaced with a culture medium to induce differentiation to cartilaginous cells in accordance with Document A. To the culture medium to induce differentiation to cartilaginous cells, the garcinia extract and/or the component (B) (components (B1) to (B4)) as test substances were added so that the final concentration was the concentration shown in Tables 1 to 3. No test substance was added to the control group. The cells were cultured for about 10 days, and then fixed with a 4% paraformaldehyde·phosphate buffer (manufactured by FUJIFILM Wako Pure Chemical Corporation). After fixed, the cells were stained with an Alcian blue solution (manufactured by MUTO PURE CHEMICALS CO., LTD.) for 1 hour, and the dye was eluted using a 6 M guanidine hydrochloride solution (manufactured by Tokyo Chemical Industry Co., Ltd.). The eluate was transferred to a 96 well plate, and the OD value of each well at 620 nm was measured with a microplate reader to measure the amount of matrix produced by differentiation-induced cartilaginous cells.

[4] = Table 12a, Test Example 3: HCA·Ca 25 μM or constituent sugar (B4) 2.5 μM alone
[5] = Table 7: HCA·Ca and/or glucosamine (B4), 21 days, safranin O red area
[6] = Table 6: garcinia extract and/or glucosamine (B4), 21 days, safranin O red area

| Compound | Differentiated cartilaginous cell area ratio [1, 4] | Ratio of cartilage matrix production [3] | other results |
| --- | --- | --- | --- |
| O=C[C@H](O)[C@@H](O)[C@H](O)[C@H](O)C(=O)O [compound 43, D-glucuronic acid] | 0.7 |  |  |
| CC(=O)N[C@H]1C(O)O[C@H](CO)[C@@H](O)[C@@H]1O (stereo partly drawn) [compound 41, N-acetyl-D-glucosamine] | 1.8 |  |  |
| O=C([O-])C[C@@](O)(C(=O)[O-])[C@H](O)C(=O)[O-].O=C([O-])C[C@@](O)(C(=O)[O-])[C@H](O)C(=O)[O-].[Ca+2].[Ca+2].[Ca+2] [calcium hydroxycitrate, (−) Hydroxycitric acid-3 calcium] |  |  | activity to induce differentiation to cartilaginous cells (in words) [1]: exhibits an activity to induce differentiation to cartilaginous cells, the degree of which is limited; cartilage matrix production activity (amount of GAG, in words) [2]: exhibits a cartilage matrix production activity, the degree of which is limited |
| N[C@H]1C(O)O[C@H](CO)[C@@H](O)[C@@H]1O (stereo partly shown) [compound 8, Glucosamine] |  | 1.01 |  |
| Cl.N[C@H]1C(O)O[C@H](CO)[C@H](O)[C@@H]1O (stereo partly drawn) [compound 44, D-(+)-galactosamine hydrochloride] | 0.7 |  |  |
| N[C@H]1C(O)O[C@H](CO)[C@@H](O)[C@@H]1O (stereo partly shown) [glucosamine, Glucosamine] |  |  | activity to induce differentiation to cartilaginous cells (in words) [1]: reduce the activity to induce differentiation to cartilaginous cells; cartilage matrix production activity (amount of GAG, in words) [2]: reduce the cartilage matrix production activity |
| O=C([O-])C[C@@](O)(C(=O)[O-])[C@H](O)C(=O)[O-].O=C([O-])C[C@@](O)(C(=O)[O-])[C@H](O)C(=O)[O-].[Ca+2].[Ca+2].[Ca+2] [compound 32, (−) Hydroxycitric acid-3 calcium] |  |  | Differentiated cartilaginous cell area ratio ([1]; Table 5: HCA·Ca and/or chondroitin sulfate (B1), 21 days, safranin O red area): 1.7; Differentiated cartilaginous cell area ratio [1, 5]: 1.7; Differentiated cartilaginous cell area ratio ([1]; Table 9: HCA·Ca and/or hyaluronic acid (B3), 21 days, safranin O red area): 3.5; Differentiated cartilaginous cell area ratio ([1]; Table 11: HCA·Ca and/or proteoglycan (B2), 21 days, safranin O red area): 1.5 |
| N[C@H]1C(O)O[C@H](CO)[C@@H](O)[C@@H]1O (stereo partly shown) [compound 10, Glucosamine] |  | 1.01 |  |
| N[C@H]1C(O)O[C@H](CO)[C@@H](O)[C@@H]1O (stereo partly shown) [compound 13, Glucosamine] |  | 1.00 |  |
| N[C@H]1C(O)O[C@H](CO)[C@@H](O)[C@@H]1O (stereo partly shown) [compound 9, Glucosamine] |  | 1.01 |  |
| Sodium hyaluronate [hyaluronic acid] |  |  | activity to induce differentiation to cartilaginous cells (in words) [1]: almost no activity to induce differentiation to cartilaginous cells; cartilage matrix production activity (amount of GAG, in words) [2]: almost no activity to induce differentiation to cartilaginous cells |
| CC(=O)N[C@H]1C(O)O[C@H](COS(=O)(=O)[O-])[C@@H](O)[C@@H]1O.[Na+] (stereo partly drawn) [compound 42, Sodium N-acetyl-D-glucosamine 6-sulfate] | 2 |  |  |
| N[C@H]1C(O)O[C@H](CO)[C@@H](O)[C@@H]1O (stereo partly shown) [compound 11, Glucosamine] |  | 1.01 |  |
| CC(=O)N[C@H]1C(O)O[C@H](COS(=O)(=O)[O-])[C@H](O)[C@@H]1O.[Na+] (stereo partly drawn) [compound 46, Sodium N-acetyl-D-galactosamine 6-sulfate] | 1.4 |  |  |
| O=C([O-])C[C@@](O)(C(=O)[O-])[C@H](O)C(=O)[O-].O=C([O-])C[C@@](O)(C(=O)[O-])[C@H](O)C(=O)[O-].[Ca+2].[Ca+2].[Ca+2] [compound 39, (−) Hydroxycitric acid-3 calcium] | 1.8 |  |  |
| N[C@H]1C(O)O[C@H](CO)[C@@H](O)[C@@H]1O (stereo partly shown) [compound 34, Glucosamine] |  |  | Differentiated cartilaginous cell area ratio [1, 6]: 0.2; Differentiated cartilaginous cell area ratio [1, 5]: 0.2 |
| Cl.N[C@H]1C(O)O[C@H](CO)[C@@H](O)[C@@H]1O (stereo partly drawn) [compound 40, D-(+)-glucosamine hydrochloride] | 0.6 |  |  |
| CC(=O)N[C@H]1C(O)O[C@H](CO)[C@H](O)[C@@H]1O (stereo partly drawn) [compound 45, N-acetyl-D-galactosamine] | 1 |  |  |
| N[C@H]1C(O)O[C@H](CO)[C@@H](O)[C@@H]1O (stereo partly shown) [compound 14, Glucosamine] |  | 1.00 |  |
| N[C@H]1C(O)O[C@H](CO)[C@@H](O)[C@@H]1O (stereo partly shown) [compound 33, Glucosamine] |  |  | Differentiated cartilaginous cell area ratio [1, 6]: 0.1; Differentiated cartilaginous cell area ratio [1, 5]: 0.1 |
| N[C@H]1C(O)O[C@H](CO)[C@@H](O)[C@@H]1O (stereo partly shown) [compound 12, Glucosamine] |  | 1.02 |  |
| N[C@H]1C(O)O[C@H](CO)[C@@H](O)[C@@H]1O (stereo partly shown) [compound 6, Glucosamine] |  | 1.00 |  |
| N[C@H]1C(O)O[C@H](CO)[C@@H](O)[C@@H]1O (stereo partly shown) [compound 7, Glucosamine] |  | 1.01 |  |
